Consider 13 compounds from patent publication US12325697B2 (Nimbus Clio, Inc., priority 2021, dated 2025).

In assay [1] the target is Recombinant human Cbl-b (aa 36-427) (Homo sapiens (Human), UniProt Q13191). In words: Cbl-b Biochemical Assay (TR-FRET). The settings on record: read-out: TR-FRET hCbl-b IC50. The gist of the method:
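IC50 from 4-parameter fit of % inhibition (DMSO max, reference-inhibitor min), duplicate ten-point series. Compound preincubated with 6 nM Cbl-b, then Src-Zap70 (1-2.5 nM)/0.5 mM ATP reaction 60 min RT; EDTA quench with labelled UBE2D2-Ub and streptavidin-terbium, 60 min, HTRF at 520 nm.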

Assay [2] concerns Phospho-Zap70 (Y-319) in Jurkat wild-type (clone E6-1) cells. In words: Jurkat pZAP70 HTRF Assay. The class given is cell-based. Particulars: Homo sapiens, anti-CD3 5 μg/ml, 3 hr, read-out: ZAP70 Jurkat EC50.
Assay [3] has as its system Jurkat (clone E6-1) cells, NFAT luciferase reporter. In words: Jurkat Reporter Assay (NFAT Luciferase). The class given is cell-based. The settings on record: Homo sapiens, anti-CD3 stimulation, 6 hr, read-out: Jurkat NFAT EC50.

Structures are written as SMILES.

Recombinant human Cbl-b (aa 36-427), sequence (Q13191 36-427): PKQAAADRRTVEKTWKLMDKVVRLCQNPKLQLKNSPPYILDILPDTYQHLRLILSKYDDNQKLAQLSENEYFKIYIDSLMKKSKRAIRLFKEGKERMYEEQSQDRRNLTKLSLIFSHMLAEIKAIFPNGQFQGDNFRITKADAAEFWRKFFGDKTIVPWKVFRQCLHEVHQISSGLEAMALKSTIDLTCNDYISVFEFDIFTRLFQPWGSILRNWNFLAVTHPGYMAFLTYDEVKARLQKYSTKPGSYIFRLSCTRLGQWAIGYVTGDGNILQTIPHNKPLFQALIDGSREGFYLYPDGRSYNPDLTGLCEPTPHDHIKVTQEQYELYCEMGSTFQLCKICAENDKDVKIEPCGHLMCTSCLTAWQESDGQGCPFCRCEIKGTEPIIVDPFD

For `Cn1cnnc1-c1cc(Cl)ccc1-c1cccc(N2Cc3ccc(CNCC4(O)CCCC4)cc3C2=O)c1` [AGU-10, 2-[4′-Chloro-2′-(4-methyl-1,2,4-triazol-3-yl)-[1,1′-biphenyl]-3-yl]-6-({[(1-hydroxycyclopentyl)methyl]amino}methyl)-3H-isoindol-1-one], the half-maximal inhibitory concentration (IC50) in assay [1] is not above 200 nM. Also, the concentration for a half-maximal effect (EC50) in assay [2] and in assay [3] was less than 200 nM each time.

Take `Cn1cnnc1-c1cc(Cl)ccc1-c1cccc(N2Cc3ccc(CNCC4(O)CCC4)cc3C2=O)c1` [AGV-1, 2-[4′-Chloro-2′-(4-methyl-1,2,4-triazol-3-yl)-[1,1′-biphenyl]-3-yl]-6-({[(1-hydroxycyclobutyl)methyl]amino}methyl)-3H-isoindol-1-one]: in assay [1], the IC50 was not above 200 nM. For the same compound, the concentration for a half-maximal effect (EC50) in assay [2] and in assay [3] was less than 200 nM in each case.

As to `Cn1cnnc1-c1cc(Cl)ccc1-c1cc(C2CC2)nc(N2Cc3ccc(CNCC4(O)CCC4)cc3C2=O)c1` [AGW-6, 2-{4-[4-Chloro-2-(4-methyl-1,2,4-triazol-3-yl)phenyl]-6-cyclopropylpyridin-2-yl}-6-({[(1-hydroxycyclobutyl)methyl]amino}methyl)-3H-isoindol-1-one], the 50% inhibitory concentration (IC50) in assay [1] is not above 200 nM. For the same compound, the 50% effective concentration (EC50) in assay [2] and in assay [3] was less than 200 nM each time.

As to `CNCc1cc2c(c(C(F)(F)F)c1)CN(c1cc(-c3ccc(C#N)cc3-c3nncn3C)cc(C3CC3)n1)C2=O` [AGZ-1, 4-(2-Cyclopropyl-6-{6-[(methylamino)methyl]-1-oxo-4-(trifluoromethyl)-3H-isoindol-2-yl}pyridin-4-yl)-3-(4-methyl-1,2,4-triazol-3-yl)benzonitrile], the 50% inhibitory concentration (IC50) in assay [1] was not above 200 nM. For the same compound, the concentration for a half-maximal effect (EC50) in assay [2] and in assay [3] was less than 200 nM in each case.

As to `Cn1cnnc1-c1cc(F)ccc1-c1cccc(N2Cc3ccc(CNCC4(O)CCC4)cc3C2=O)c1` [AHA-2, 2-(4′-Fluoro-2′-(4-methyl-4H-1,2,4-triazol-3-yl)-[1,1′-biphenyl]-3-yl)-6-((((1-hydroxycyclobutyl)methyl)amino)methyl) isoindolin-1-one], the IC50 in assay [1] was not above 200 nM. For the same compound, the figures for the EC50 in assay [2] and in assay [3] were 200 to 1000 nM and less than 200 nM, respectively.

Take `Cn1cnnc1-c1cc(F)ccc1-c1cccc(N2Cc3ccc(CNCC4(O)CCCC4)cc3C2=O)c1` [AHB-1, 2-(4′-Fluoro-2′-(4-methyl-4H-1,2,4-triazol-3-yl)-[1,1′-biphenyl]-3-yl)-6-((((1-hydroxycyclopentyl)methyl)amino)methyl) isoindolin-1-one]: the IC50 in assay [1] is not above 200 nM. Also, the concentration for a half-maximal effect (EC50) in assay [2] and in assay [3] was less than 200 nM throughout.

In the case of `Cn1cnnc1-c1cc(C#N)ccc1-c1cc(C2CC2)nc(N2Cc3ccc(CN[C@@H]4CCC[C@@H]4O)cc3C2=O)c1` [AHC-1, 4-{2-cyclopropyl-6-[6-({[(1R,2S)-2-hydroxycyclopentyl]amino}methyl)-1-oxo-3H-isoindol-2-yl]pyridin-4-yl}-3-(4-methyl-1,2,4-triazol-3-yl)benzonitrile], in assay [1], the IC50 was not above 200 nM. The half-maximal effective concentration (EC50) in assay [2] and in assay [3] was less than 200 nM in each case.

Take `Cn1cnnc1-c1cc(F)ccc1-c1cc(C2CC2)nc(N2Cc3ccc(CNCC(C)(C)O)cc3C2=O)c1` [AHG-2, 2-{6-Cyclopropyl-4-[4-fluoro-2-(4-methyl-1,2,4-triazol-3-yl)phenyl]pyridin-2-yl}-6-{[(2-hydroxy-2-methylpropyl)amino]methyl}-3H-isoindol-1-one]: the half-inhibitory concentration (IC50) in assay [1] was not above 200 nM. The EC50 in assay [2] and in assay [3] was less than 200 nM in each case.

In the case of `Cn1cnnc1-c1cc(F)ccc1-c1cc(C2CC2)nc(N2Cc3ccc(CNCC4CCCC4)cc3C2=O)c1` [AHH-3, 6-{[(Cyclopentylmethyl)amino]methyl}-2-{6-cyclopropyl-4-[4-fluoro-2-(4-methyl-1,2,4-triazol-3-yl)phenyl]pyridin-2-yl}-3H-isoindol-1-one], the IC50 in assay [1] is not above 200 nM. Besides, the EC50 in assay [2] and in assay [3] was less than 200 nM throughout.

With `CN1CC[C@@H](COCc2cc3c(c(C(F)(F)F)c2)CN(c2cc(-c4ccc(F)cc4-c4nncn4C)cc(C4CC4)n2)C3=O)C1` [AHI-4, 2-{6-Cyclopropyl-4-[4-fluoro-2-(4-methyl-1,2,4-triazol-3-yl)phenyl]pyridin-2-yl}-6-({[(3R)-1-methylpyrrolidin-3-yl]methoxy}methyl)-4-(trifluoromethyl)-3H-isoindol-1-one], the concentration for half-maximal inhibition (IC50) in assay [1] was not above 200 nM. Further, the 50% effective concentration (EC50) was 200 to 1000 nM in assay [2] and less than 200 nM in assay [3].

For `Cn1cnnc1-c1cc(F)ccc1-c1cc(C2CC2)nc(N2Cc3c(cccc3C(F)(F)F)C2=O)c1` [AND-2, 2-{6-Cyclopropyl-4-[4-fluoro-2-(4-methyl-1,2,4-triazol-3-yl)phenyl]pyridin-2-yl}-4-(trifluoromethyl)-3H-isoindol-1-one], in assay [1], the half-maximal inhibitory concentration (IC50) was not above 200 nM. In addition, the 50% effective concentration (EC50) is 1000 to 10000 nM in assay [2] and 200 to 1000 nM in assay [3].

With `Cn1cnnc1-c1ccccc1-c1cccc(N2Cc3c(cc(CNCC4(O)CCC4)cc3C(F)(F)F)C2=O)c1` [AW-2, 6-((((1-Hydroxycyclobutyl)methyl)amino)methyl)-2-(2′-(4-methyl-4H-1,2,4-triazol-3-yl)-[1,1′-biphenyl]-3-yl)-4-(trifluoromethyl)isoindolin-1-one], the IC50 in assay [1] is not above 200 nM. Besides, the 50% effective concentration (EC50) in assay [2] and in assay [3] was less than 200 nM throughout.

With `Cn1cnnc1-c1ccccc1-c1cccc(N2Cc3c(cc(CNCC(C)(C)O)cc3C(F)(F)F)C2=O)c1` [AZ-2, 6-(((2-Hydroxy-2-methylpropyl)amino)methyl)-2-(2′-(4-methyl-4H-1,2,4-triazol-3-yl)-[1,1′-biphenyl]-3-yl)-4-(trifluoromethyl)isoindolin-1-one], the IC50 in assay [1] was not above 200 nM. Moreover, the 50% effective concentration (EC50) in assay [2] and in assay [3] was less than 200 nM throughout.
